Results reported in patent US9078894B2 (AB SCIENCE, priority 2011, dated 2015).
Where “and” joins values, the source holds several entries; their conditions need not be identical. Identical values can stand only once.

Key:
[1] = test system: human cord blood mast cells; settings: cited from earlier work
[2] = test system: Balb/c male mice sensitized with ovalbumine; assay: Murine model of allergic airway inflammation (ovalbumine); format: in vivo, mouse; settings: oral, twice daily, 25 and 100 mg/kg/day; sensitized and challenged animals
Description: Balb/c male mice aged 9 weeks were sensitized with ovalbumine (50 μg) adsorbed with Al(OH)3 diluted in physiological saline (0.9% NaCl) by intraperitoneal injection on day 1 and 7. Sensitization was followed by intranasal challenges with ovalbumine (10 μg) diluted in 0.9% NaCl every day from day 18 to day 21. Non sensitized control animals received intraperitoneal injections of vehicle alone followed by intranasal challenges with NaCl 0.9% alone at the same time than the sensitized animals. […] On day 22, airway hyper responsiveness (AHR) was measured by the enhanced pause (PenH) in the whole body plethysmograph. The bronchoconstrictive response was evaluated as the response to a concentration-dependent methacholine (MCh) aerosol exposure. Mice were first exposed to a saline aerosol then to an aerosol generated from increasing concentrations of methacholine (0.05, 0.1, 0.2, 0.3, and 0.4M). Infiltration of inflammatory cells was measured immediately after assessment of AHR to methacholine via collection of bronchoalveolar lavage (BAL) fluid by lavage of the whole lung with physiological saline containing 1.6 mM EDTA. Cells were counted in the BAL and cell types identified by morphological criteria after Hemacolor staining.

[3] = test system: experimentally asthmatic cats; assay: Experimental feline asthma, randomized blinded placebo-controlled study; format: in vivo, cat
Source text: Twelve experimentally asthmatic cats were enrolled in a randomized, blinded, placebo-controlled study. […] Exclusion criteria were evidence of cardiac insufficiency, evidence of gastric bleeding, major surgery within 2 weeks of treatment initiation, life expectancy less than 3 months, lactating or pregnant cats or cats intended for breeding, previous history of kidney disease or previous known episodes of proteinuria, administration of food listed on the “recall list” issued by FDA or vaccination within 4 weeks prior to enrollment, and any concurrent medical illness. […] Bronchoalveolar lavage fluid (BALF) eosinophil percentages and airway hyper-reactivity, determined by changes in ventilator mechanics in response to methacholine (MCh) challenge were evaluated at baseline, weeks 4, 8 and 12. Results of the MCh challenge were reported as the effective concentration of MCh that increased baseline airway resistance by 200% (EC200Raw) and the end-inspiratory pressure after a breath hold (plateau pressure, Pplat). Treatment was interrupted or discontinued if predetermined adverse events were noted. Cats naïve to Bermuda grass allergen (BGA) confirmed by intradermal skin testing (IDST) and with normal BALF underwent allergen sensitization. IDST was re-evaluated to confirm allergen sensitization. Next, allergen challenge of BGA as an aerosol in awake, spontaneously breathing cats was performed. Allergen solution (100 μg of BGA dissolved in PBS) was aerosolized into a clear chamber using an air compressor attached to a nebulizer. Seven challenges were administered over the next 2 weeks, at which time BALF was repeated to confirm development of eosinophilic airway inflammation. Bronchoalveolar lavage fluid was collected in a blind fashion at baseline and weeks 4, 8, and 12 of the study. Collection of BALF was obtained after Mch challenge and under the same anesthesia. A total nucleated cell count was performed on each BALF sample using a coulter counter. Cytological evaluation and differential cell counts were performed on samples prepared by cytocentrifugation. Differential cell counts (200 nucleated cells per slide) on modified Wright's stained slides were performed, and cell percentages were reported.

[4] = test system: asthmatic patients with severe persistent asthma; assay: Phase 2a 16-week double-blind placebo-controlled study in severe persistent asthma; format: in vivo, human; set-up: Oral corticosteroids absolute change (W 4 to W 16), Mean ± SD / Oral corticosteroids absolute change (W 4 to W 16), Median: unit not given here
Source text: The trial consisted of three phases: during the first 4 weeks, the corticosteroid dose remained constant; during the following 8 weeks, oral corticosteroid doses were decreased each week according to a predefined schedule, until weaning or an asthma exacerbation occurred; the final 4 weeks were a stabilization period for observation. Asthma exacerbation was defined as a deterioration of asthma symptoms requiring an emergency visit, a hospitalization or an increase in oral corticosteroid treatment. In case an asthma exacerbation occurred, oral corticosteroid therapy was resumed at the level prior to this occurrence following the acute treatment phase. Patients underwent a visit every 2 weeks during the first 4 weeks, then a weekly visit for the following 12 weeks. A possible treatment extension was part of the study protocol in case of clinical benefit, based on the investigators assessment. In these extension phases the follow-up of patients took place every 4 weeks during the first 3 months and then every 12 weeks until the end of the study. The primary objective was to measure the reduction of oral corticosteroids doses after 16 weeks of treatment. Therefore, efficacy and safety measurements were assessed at enrolment of each patient in the study prior to the administration of the investigational compound and then at week 2, and weekly from weeks 4 through to 16. The secondary objectives were to monitor the change from baseline in symptomatic scores (asthma control questionnaire, ACQ), the FEV1 and rescue medication intake when necessary. Patients, 18 to 75 years of age with a diagnosis of asthma for ≧3 years and severe uncontrolled disease for ≧1 year, and followed up at the same centre for ≧1 year, were eligible for this study. […] Exclusion criteria included: (a) any other significant respiratory or cardiac disease; (b) worsening of asthma symptoms requiring treatment with additional oral corticosteroids within 4 weeks of screening; (c) any other infections; (d) a history of acute infection requiring hospitalization or treatment with antibiotics within 2 weeks of screening; (e) rare variants of severe asthma such as Churg-Strauss syndrome or allergic bronchopulmonary aspergillosis; […] A treatment wash-out period of 4 months at time of enrolment was required for prior use of omalizumab.

[5] = test system: patients; settings: estimated exposure of about 57,300 patients, June 2003 through December 2006; cited from earlier work
[6] = test system: patients; settings: 20 of 4127 patients; cited from earlier work
[7] = ITT population, 3.0 mg/kg/day (N = 12)
[8] = ITT population, 4.5 mg/kg/day (N = 11)
[9] = ITT population, 6.0 mg/kg/day (N = 10)
[10] = ITT population, all masitinib (N = 33)
[11] = subpopulation initially treated with >15 mg prednisone daily, 3.0 mg/kg/day (N = 9)
[12] = subpopulation initially treated with >15 mg prednisone daily, 4.5 mg/kg/day (N = 4)
[13] = subpopulation initially treated with >15 mg prednisone daily, 6.0 mg/kg/day (N = 6)
[14] = subpopulation initially treated with >15 mg prednisone daily, all masitinib (N = 19)

Cc1ccc(NC(=O)c2ccc(CN3CCN(C)CC3)cc2)cc1Nc1nc(-c2cccnc2)cs1 [masitinib, 4-(4-methylpiperazin-1-ylmethyl)-N-[4-methyl-3-(4-pyridin-3ylthiazol-2-ylamino)phenyl]benzamide]
FcεRI-mediated degranulation [1]: inhibition of FcεRI-mediated degranulation
Penh (airway hyper responsiveness) [2]: a decrease of Penh
number of eosinophils in the bronchoalveolar lavage fluid [2]: marked decrease
proteinuria, cats affected ([3]; 50 mg/day, p=0.002 vs placebo): every cat
group mean±SD % BALF eosinophils ([3]; after 4 weeks of therapy, 50 mg orally once daily, p=0.023 vs placebo): 7±9%
Pplat with MCh challenge ([3]; after 4 weeks of therapy, no significant increase in masitinib-treated cats (p=0.32)): blunting of airflow limitation
group mean±SD EC200Raw, difference between groups ([3]; at baseline or after 4 weeks of therapy, MCh challenge): no significant difference
permanent discontinuation due to proteinuria ([3]; at or after week 4): four
temporary drug interruption followed by dose reduction due to proteinuria ([3]; at or after week 4): two
other side effects suspected of being associated with masitinib administration ([3]; infrequent overall, no specific therapy required): vomiting, diarrhea, Heinz bodies, hypoalbuminemia, hypoglobulinemia, hypercholesterolemia and ALT increase
masitinib-treated cats with % BALF eosinophils <17% ([3]; week 4): five of six
% BALF eosinophils, values of individual cats ([3]; week 4, the five masitinib-treated cats below 17%): 1% (2×) and 2% and 3.5% and 15%
change in Pplat with MCh challenge versus saline aerosol, compared between treatment groups ([3]; week 4 compared to baseline): significant (p=0.033) decrease
ACQ score change ([4]; 3.0 mg/kg dose): 0.56 units
ACQ score change ([4]; 4.5 mg/kg dose): 1.57 units
ACQ score change ([4]; 6 mg/kg dose): 0.89 units
improvement of ACQ score at W16 ([4]; ITT analysis, all masitinib-treated patients, p<0.001): 0.99 unit
Oral corticosteroids absolute change (W 4 to W 16), Mean ± SD [4, 7]: −10.7 ± 19.2
Oral corticosteroids absolute change (W 4 to W 16), Median [4, 7]: −14.0
Patients weaned at W 16, number (percent) [4, 7]: 5 (41.7%)
Oral corticosteroids absolute change (W 4 to W 16), Mean ± SD [4, 8]: 0.2 ± 26.8
Oral corticosteroids absolute change (W 4 to W 16), Median [4, 8]: −7.5
Patients weaned at W 16, number (percent) [4, 8]: 2 (25.0%)
Oral corticosteroids absolute change (W 4 to W 16), Mean ± SD [4, 9]: −12.2 ± 18.5
Oral corticosteroids absolute change (W 4 to W 16), Median [4, 9]: −11.3
Patients weaned at W 16, number (percent) [4, 9]: 3 (37.5%)
Oral corticosteroids absolute change (W 4 to W 16), Mean ± SD [4, 10]: −8.0 ± 21.3
Oral corticosteroids absolute change (W 4 to W 16), Median [4, 10]: −12.3
Patients weaned at W 16, number (percent) [4, 10]: 10 (35.7%)
masitinib-related AE: diarrhea ([4]; all masitinib-treated patients): 18.2%
masitinib-related AE: fatigue ([4]; all masitinib-treated patients): 12.1%
masitinib-related AE: nausea ([4]; all masitinib-treated patients): 30.3%
masitinib-related AE: peripheral edema ([4]; all masitinib-treated patients): 18.2%
masitinib-related AE: pruritus ([4]; all masitinib-treated patients): 12.1%
masitinib-related AE: skin rash ([4]; all masitinib-treated patients): 30.3%
masitinib-related AE: vomiting ([4]; all masitinib-treated patients): 12.1%
patients who experienced at least one AE ([4]; all patients treated with masitinib, regardless of dose): 93.9%
change in lung function ([4]; in this trial): no significant change in lung function
asthma exacerbation rate in patients experiencing at least one exacerbation, decrease ([4]; masitinib group, all doses merged): 42.4%
rate of asthma exacerbation compared to placebo ([4]; masitinib-treated patients): significantly reduced
percent reduction in oral corticosteroid doses ([4]; patients receiving >15 mg equivalent prednisone per day at baseline, all masitinib-treated patients): 52±53%
patients weaned off oral corticosteroids at W16, number ([4]; patients receiving >15 mg equivalent prednisone per day at baseline, masitinib treatment groups): six
Oral corticosteroids absolute change (W 4 to W 16), Mean ± SD [4, 11]: −17 ± 9
Oral corticosteroids absolute change (W 4 to W 16), Median [4, 11]: −20
Oral corticosteroids percent change (W 4 to W 16), Mean ± SD [4, 11]: −68 ± 38%
Oral corticosteroids percent change (W 4 to W 16), Median [4, 11]: −81%
Patients weaned at W 16, number (percent) [4, 11]: 4 (44.4%)
Oral corticosteroids absolute change (W 4 to W 16), Mean ± SD [4, 12]: −7 ± 8
Oral corticosteroids absolute change (W 4 to W 16), Median [4, 12]: −5
Oral corticosteroids percent change (W 4 to W 16), Mean ± SD [4, 12]: −33 ± 42%
Oral corticosteroids percent change (W 4 to W 16), Median [4, 12]: −19%
Patients weaned at W 16, number (percent) [4, 12]: 0 (0.0%)
Oral corticosteroids absolute change (W 4 to W 16), Mean ± SD [4, 13]: −14 ± 22
Oral corticosteroids absolute change (W 4 to W 16), Median [4, 13]: −16
Oral corticosteroids percent change (W 4 to W 16), Mean ± SD [4, 13]: −40 ± 78%
Oral corticosteroids percent change (W 4 to W 16), Median [4, 13]: −69%
Patients weaned at W 16, number (percent) [4, 13]: 2 (33.3%)
Oral corticosteroids absolute change (W 4 to W 16), Mean ± SD [4, 14]: −14 ± 14
Oral corticosteroids absolute change (W 4 to W 16), Median [4, 14]: −15
Oral corticosteroids percent change (W 4 to W 16), Mean ± SD [4, 14]: −52 ± 53%
Oral corticosteroids percent change (W 4 to W 16), Median [4, 14]: −65%

omalizumab: an anti-immunoglobulin E antibody (anti-IgE) approved for severe allergic asthma
frequency of anaphylaxis attributed to omalizumab use [5]: at least 0.2%
malignant neoplasms observed in omalizumab-treated patients [6]: 0.5%
